Entries after “also recorded” stand apart in the source; their conditions may differ.
Key:
[1] = system: Hs0578t cells; assay: growth inhibition of estrogen negative human breast cancer cell line Hs0578t in culture; type: cell-based; conditions: for IC50: Homo sapiens, 120 h, approximate, estimated from manually fitted best fit curve, cell counts five days after seeding; for IC50 / inhibition of Hs0578t cell growth, by concentration: 10^-15 M to 10^-5 M; for inhibition of Hs0578t cell growth, by concentration: inhibitory = proliferation decreased by 20% or more vs controls; for comparative assessment of potency / maximal inhibition, Hs0578t cell growth: summary statement
Experimental: (§1) The above examples were tested for their ability to inhibit the growth of both estrogen positive (MCF-7) and estrogen negative (Hs0578t) human breast cancer cell lines in culture. […] MCF-7 cells were maintained in Dulbecco's modified Eagle's medium (DMEM), supplemented with 10% fetal bovine serum (FBS), penicillin (10,000 units/ml) and streptomycin (10 mg/ml) at 37° C. in a humidified atmosphere containing 5% CO2. Hs0578t cells were maintained under similar conditions, however DMEM containing high glucose was used and 10 ug/ml of insulin was added to the medium. Prior to each experiment, cells from stock flasks were suspended by treatment with 0.2% EDTA in phosphate buffered saline (pH 7.3). The cells were then centrifuged at 1000 rpm for 7 minutes, then resuspended in fresh medium and counted on a hemocytometer. Cells were adjusted to a density of 3.0×10^6 /plate in 5 mls of supplemented plating medium. After 5 hours, the plating medium was replaced with fresh medium containing either melatonin or the above examples in concentrations ranging from 10^-15 M to 10^-5 M. These compounds were initially dissolved in ethanol and diluted to the appropriate final concentration with DMEM; the final concentration of ethanol per plate was 0.005%. Control cells were exposed to the ethanol vehicle alone (0.005%). Five days after initial seeding, the cells were resuspended with PBS-EDTA and counted on a hemocytometer to determine the total cell counts per plate. Each experiment was run using triplicate plates for each concentration of melatonin or above example as well as the vehicle controls. Cell growth in each of the experimental plates was expressed as a percent of control growth (100%). A given concentration of either an above example or of melatonin was considered to be inhibitory if it decreased cell proliferation by 20% or more as compared with controls. Since most of the dose-response curves were irregular, the approximate IC50 for each example was estimated from a best fit (manually fitted) curve spanning from the 100% control growth level to the maximal inhibitory concentration of that example. Effects of the above examples on estrogen receptor positive and estrogen receptor negative human breast cancer cell lines (MCF-7 and Hs0578t, respectively) are summarized in FIGS. 1-15, and discussed below. FIGS. 1-6 summarize effects on the MCF-7 cell line, while FIGS. 7-15 describe effects on the Hs0578t cell line.

[2] = system: MCF-7 cells; assay: growth inhibition of estrogen positive human breast cancer cell line MCF-7 in culture; type: cell-based; conditions: for inhibition of MCF-7 cell growth, by concentration: 10^-15 M to 10^-5 M, inhibitory = proliferation decreased by 20% or more vs controls; for potency relative to melatonin (times more potent), MCF-7 cell growth: compared with melatonin IC50; for comparative assessment of potency / maximal inhibition, MCF-7 cell growth: summary statement
Experimental: as §1

[3] = system: Hs0578t cells; conditions: reference molecule, known activity; high concentrations; cited from earlier work
[4] = system: mammary tumors; conditions: melatonin administration; cited from earlier work
[5] = system: MCF-7 cells; conditions: reference molecule, known activity; cited from earlier work
[6] = system: frog skin; conditions: Heward and Hadley 1975; cited from earlier work
[7] = system: chicken retina; conditions: Dubocovich 1984; cited from earlier work
[8] = Frohn et al.; Clemens et al.; cited from earlier work

CC(=O)NCCc1c(Cc2ccccc2)[nH]c2ccccc12 [Example #8, 2-Benzyl-3-Ethylacetamidoindole]
IC50 [1]: ~0.1 nM

COc1ccc2[nH]c3c(c2c1)CCN(C(C)=O)C3C (stereo not drawn) [Example #3, 1-Methyl-2-N-Acetyl-6-Methoxy-1,2,3,4-Tetrahydro-β-Carboline]
inhibition of Hs0578t cell growth, by concentration [1]: All concentrations of these compounds were inhibitory to cell growth | inhibition of MCF-7 cell growth, by concentration [2]: inhibited MCF-7 cell growth at all concentrations

COc1ccc2[nH]cc(CCNC(C)=O)c2c1 [melatonin, 5-methoxy-N-actyltryptamine]
inhibition of Hs0578t cell growth, by concentration [1]: no inhibitory effect in most experiments | inhibition of growth of estrogen negative cell lines such as Hs0578t [3]: at high concentrations, can inhibit estrogen negative cell lines such as Hs0578t | effect on mammary carcinogenesis [4]: melatonin administration has been shown to inhibit | inhibition of growth of estrogen positive cell lines [5]: known to inhibit growth of estrogen positive cell lines

COc1ccc2[nH]c(Cc3ccccc3)c(CCNC(C)=O)c2c1 [Example #4, 2-Benzyl-3-Ethylacetamido-5-Methoxyindole]
inhibition of Hs0578t cell growth, by concentration [1]: inhibits Hs0578t cell growth at 10^-13 M and 10^-7 M | comparative assessment of potency / maximal inhibition, Hs0578t cell growth [1]: appears to be the most potent inhibitor of Hs0578t cells | inhibition of MCF-7 cell growth, by concentration [2]: All concentrations of Example #4 were inhibitory to cell growth | potency relative to melatonin (times more potent), MCF-7 cell growth [2]: 60 times

CC(=O)NCCc1c(Cc2ccc(C)cc2)[nH]c2ccccc12 [Example #10, 2-(4-Tolylmethyl)-3-Ethylacetamidoindole]
inhibition of Hs0578t cell growth, by concentration [1]: no inhibition of Hs0578t cell growth was observed | inhibition of MCF-7 cell growth, by concentration [2]: inhibits MCF-7 cell growth at 10^-15 M, 10^-13 M, and 10^-11 M

CC(=O)N1CCc2c([nH]c3ccccc23)C1 [Example #6, 2-N-Acetyl-1,2,3,4-Tetrahydro-β-Carboline]
inhibition of MCF-7 cell growth, by concentration [2]: All concentrations except 10^-13 M and 10^-5 M were inhibitory to MCF-7 cell growth | comparative assessment of potency / maximal inhibition, MCF-7 cell growth [2]: appears to be the most potent inhibitor of MCF-7 cell growth

CC(=O)NCCc1c[nH]c2ccccc12 [N-acetyltryptamine]
melatonin blocking activity (frog skin lightening) [6]: melatonin blocking activity | antagonism of inhibitory effect of melatonin in chicken retina [7]: competitively antagonized the inhibitory effect of melatonin in the chicken retina

COc1cc2c(CCNC(C)=O)c(C)[nH]c2c(Cl)c1Cl [2-methyl-6,7-dichloromelatonin]
metabolic stability [8]: improved metabolic stability

CC(=O)NCCc1c[nH]c2ccc(O)cc12 [N-acetylserotonin]
melatonin blocking activity (frog skin lightening) [6]: melatonin blocking activity

CCC(=O)NCCc1c(Cc2ccccc2)[nH]c2ccccc12 [Example #5, 2-Benzyl-N-Propionyltryptamine]
inhibition of Hs0578t cell growth, by concentration [1]: no inhibition of Hs0578t cell growth was observed | concentration at which the maximal effect was seen (MCF-7) [2]: 10^-5 M | inhibition of MCF-7 cell growth, by concentration [2]: inhibited cell growth at all concentrations except 10^-13 M, 10^-11 M and 10^-7 M

CC(=O)NCCc1c(Cc2cccc3ccccc23)[nH]c2ccccc12 [Example #9]
inhibition of Hs0578t cell growth, by concentration [1]: inhibits Hs0578t cell growth at 10^-5 M and 10^-7 M | IC50 [1]: ~4 nM | comparative assessment of potency / maximal inhibition, Hs0578t cell growth [1]: shows the best maximal inhibition of growth | inhibition of MCF-7 cell growth, by concentration [2]: inhibition of MCF-7 cell growth at all concentrations for Examples #2 and 9, with the exceptions of Example #2 at 10^-13 M and Example #9 at 10^-13 M and 10^-5 M

CC(=O)NCCn1c(C)ccc1C [Example #1]
stimulation of Hs0578t cell growth ([1]; 10^-9 M): cell growth is actually stimulated at 10^-9 M | inhibition of Hs0578t cell growth, by concentration [1]: inhibition of Hs0578t cell growth only at 10^-5 M | IC50 [1]: ~6 nM | inhibition of MCF-7 cell growth, by concentration [2]: all concentrations except 10^-11 M and 10^-7 M inhibited MCF-7 cell growth

O=C(NCCc1c[nH]c2ccccc12)OCc1ccccc1 [Example #2, N-Benzyloxycarbonyltryptamine]
inhibition of Hs0578t cell growth, by concentration [1]: inhibits Hs0578t cell growth at 10^-11 M and 10^-9 M | comparative assessment of potency / maximal inhibition, Hs0578t cell growth [1]: highly potent inhibitor of both cell lines, but also induces in both a substantial inhibitory response at low concentrations | inhibition of MCF-7 cell growth, by concentration [2]: inhibition of MCF-7 cell growth at all concentrations for Examples #2 and 9, with the exceptions of Example #2 at 10^-13 M | comparative assessment of potency / maximal inhibition, MCF-7 cell growth [2]: elicits the best maximal inhibitory response; also recorded: highly potent inhibitor of both cell lines, but also induces in both a substantial inhibitory response at low concentrations

CC(=O)N1CCc2c([nH]c3ccc(OCc4ccccc4)cc23)C1C (stereo not drawn) [Example #7, 1-Methyl-2-N-Acetyl-6-Benzyloxy-1,2,3,4-Tetrahydro-β-Carboline]
inhibition of Hs0578t cell growth, by concentration [1]: All concentrations of these compounds were inhibitory to cell growth, with the exception of Example #7 at 10^-11 M | IC50 [1]: ~10 nM | inhibition of MCF-7 cell growth, by concentration [2]: All concentrations of Example #7 were inhibitory | Emax at 1 fM ([2]; Homo sapiens, MCF7, at 10^-15 M, read-out: maximal effect, inhibition (MCF-7 cell growth)): 37% | potency relative to melatonin (times more potent), MCF-7 cell growth [2]: 100 times

COc1ccc(Cc2[nH]c3ccccc3c2CCNC(C)=O)cc1 [Example #11, 2-(4-Methoxyphenyl)Methyl-3-Ethylacetamidoindole]
inhibition of Hs0578t cell growth, by concentration [1]: no inhibition of Hs0578t cell growth was observed | inhibition of MCF-7 cell growth, by concentration [2]: inhibits MCF-7 cell growth at 10^-15 M and 10^-13 M | comparative assessment of potency / maximal inhibition, MCF-7 cell growth [2]: not only a highly potent compound, but it elicits an impressive maximal inhibitory response at a very low concentration

From patent publication US5314908A, “Compounds useful as antiproliferative agents” (Whitby Research, Inc., priority 1992, dated 1994)
